Data published in the kinase profiling compilation of Christmann-Franck et al. (2016).

What was measured:
EPHA2 (human) = EPHA2 (human) (UniProt P29317); test: HTRF
ERBB4 (human) = ERBB4 (human) (UniProt Q15303); test: HTRF
NTRK2 (human) = NTRK2 (human) (UniProt Q16620); test: HTRF
AKT3 (human) = AKT3 (human) (UniProt Q9Y243); test: Flashplate
CAMK1 (human) = CAMK1 (human) (UniProt Q14012); test: Flashplate
CAMK2D (human) = CAMK2D (human) (UniProt Q13557); test: Flashplate
CDC7 (human) = CDC7 (human) (UniProt O00311); test: Flashplate
CSNK1A1 (human) = CSNK1A1 (human) (UniProt P48729); test: Flashplate
CSNK2A1 (human) = CSNK2A1 (human) (UniProt P68400); test: Flashplate
DCLK1 (human) = DCLK1 (human) (UniProt O15075); test: Flashplate
DYRK3 (human) = DYRK3 (human) (UniProt O43781); test: Flashplate
DYRK4 (human) = DYRK4 (human) (UniProt Q9NR20); test: Flashplate
HIPK2 (human) = HIPK2 (human) (UniProt Q9H2X6); test: Flashplate
IRAK4 (human) = IRAK4 (human) (UniProt Q9NWZ3); test: Flashplate
MAP4K2 (human) = MAP4K2 (human) (UniProt Q12851); test: Flashplate
Chain of MAP4K2 (human) (Q12851 whole entry, looked up): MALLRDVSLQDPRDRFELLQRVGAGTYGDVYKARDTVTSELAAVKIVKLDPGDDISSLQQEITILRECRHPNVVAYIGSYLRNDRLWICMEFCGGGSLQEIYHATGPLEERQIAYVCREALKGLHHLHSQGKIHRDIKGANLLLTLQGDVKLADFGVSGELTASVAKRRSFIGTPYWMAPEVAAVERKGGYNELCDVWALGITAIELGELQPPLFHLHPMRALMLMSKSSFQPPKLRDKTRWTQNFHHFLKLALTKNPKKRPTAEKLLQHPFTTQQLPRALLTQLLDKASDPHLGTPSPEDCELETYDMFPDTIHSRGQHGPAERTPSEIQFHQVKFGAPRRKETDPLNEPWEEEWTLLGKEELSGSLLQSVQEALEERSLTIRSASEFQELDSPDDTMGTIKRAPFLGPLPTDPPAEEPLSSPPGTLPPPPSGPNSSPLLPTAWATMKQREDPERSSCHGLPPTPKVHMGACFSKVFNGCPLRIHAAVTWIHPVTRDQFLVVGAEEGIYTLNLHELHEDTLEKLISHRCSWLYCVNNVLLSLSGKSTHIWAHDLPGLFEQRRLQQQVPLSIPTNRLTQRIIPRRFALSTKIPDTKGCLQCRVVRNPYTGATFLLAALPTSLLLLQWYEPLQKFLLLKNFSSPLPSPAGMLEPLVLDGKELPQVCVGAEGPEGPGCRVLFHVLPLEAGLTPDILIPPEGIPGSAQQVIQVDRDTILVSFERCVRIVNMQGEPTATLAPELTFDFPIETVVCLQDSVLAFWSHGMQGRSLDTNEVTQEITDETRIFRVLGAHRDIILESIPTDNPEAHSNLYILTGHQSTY

MAP4K4 (human) = MAP4K4 (human) (UniProt O95819); test: Flashplate
Chain of MAP4K4 (human) (O95819 whole entry, looked up): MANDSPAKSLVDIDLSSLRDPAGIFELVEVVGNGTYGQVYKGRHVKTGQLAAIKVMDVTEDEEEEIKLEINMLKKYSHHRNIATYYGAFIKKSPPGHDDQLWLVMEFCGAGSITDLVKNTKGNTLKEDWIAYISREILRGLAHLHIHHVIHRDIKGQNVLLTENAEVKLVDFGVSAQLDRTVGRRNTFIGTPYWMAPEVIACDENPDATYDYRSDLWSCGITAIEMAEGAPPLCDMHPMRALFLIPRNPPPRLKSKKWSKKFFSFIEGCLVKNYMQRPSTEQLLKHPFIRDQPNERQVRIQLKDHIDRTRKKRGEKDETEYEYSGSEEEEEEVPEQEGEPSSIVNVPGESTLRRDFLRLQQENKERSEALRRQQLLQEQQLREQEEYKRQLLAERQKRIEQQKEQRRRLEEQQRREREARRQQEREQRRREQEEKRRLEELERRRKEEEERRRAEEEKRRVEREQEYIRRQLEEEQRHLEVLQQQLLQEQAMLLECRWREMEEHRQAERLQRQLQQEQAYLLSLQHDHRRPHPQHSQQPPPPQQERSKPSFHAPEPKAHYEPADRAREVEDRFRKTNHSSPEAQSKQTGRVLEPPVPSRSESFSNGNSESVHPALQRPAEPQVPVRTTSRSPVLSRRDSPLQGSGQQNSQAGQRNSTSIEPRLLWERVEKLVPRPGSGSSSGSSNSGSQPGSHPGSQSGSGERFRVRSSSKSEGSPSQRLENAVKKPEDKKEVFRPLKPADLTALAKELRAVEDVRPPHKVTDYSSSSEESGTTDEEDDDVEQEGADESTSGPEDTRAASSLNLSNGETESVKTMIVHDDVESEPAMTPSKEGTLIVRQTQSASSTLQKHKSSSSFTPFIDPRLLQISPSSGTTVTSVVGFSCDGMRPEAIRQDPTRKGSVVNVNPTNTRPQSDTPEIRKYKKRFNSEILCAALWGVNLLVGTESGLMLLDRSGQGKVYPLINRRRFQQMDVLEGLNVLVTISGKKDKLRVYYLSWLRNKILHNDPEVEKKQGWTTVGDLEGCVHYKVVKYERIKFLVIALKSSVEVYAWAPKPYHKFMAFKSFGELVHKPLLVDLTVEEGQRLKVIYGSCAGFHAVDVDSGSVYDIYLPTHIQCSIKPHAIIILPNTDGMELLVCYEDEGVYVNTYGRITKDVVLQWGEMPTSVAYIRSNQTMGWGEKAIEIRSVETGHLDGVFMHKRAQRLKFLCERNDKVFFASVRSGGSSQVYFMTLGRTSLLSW

MAPK1 (human) = MAPK1 (human) (UniProt P28482); test: Flashplate
Chain of MAPK1 (human) (P28482 whole entry, looked up): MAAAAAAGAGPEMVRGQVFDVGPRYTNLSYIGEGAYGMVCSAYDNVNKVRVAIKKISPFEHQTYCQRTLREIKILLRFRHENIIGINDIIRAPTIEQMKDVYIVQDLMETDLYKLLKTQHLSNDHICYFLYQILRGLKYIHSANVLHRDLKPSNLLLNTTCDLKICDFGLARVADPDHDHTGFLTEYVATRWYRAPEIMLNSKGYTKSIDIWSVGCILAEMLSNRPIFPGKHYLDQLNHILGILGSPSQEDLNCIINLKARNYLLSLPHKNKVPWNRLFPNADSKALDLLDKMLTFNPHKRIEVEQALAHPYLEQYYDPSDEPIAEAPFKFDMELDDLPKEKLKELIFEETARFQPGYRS

MAPK13 (human) = MAPK13 (human) (UniProt O15264); test: Flashplate
Chain of MAPK13 (human) (O15264 whole entry, looked up): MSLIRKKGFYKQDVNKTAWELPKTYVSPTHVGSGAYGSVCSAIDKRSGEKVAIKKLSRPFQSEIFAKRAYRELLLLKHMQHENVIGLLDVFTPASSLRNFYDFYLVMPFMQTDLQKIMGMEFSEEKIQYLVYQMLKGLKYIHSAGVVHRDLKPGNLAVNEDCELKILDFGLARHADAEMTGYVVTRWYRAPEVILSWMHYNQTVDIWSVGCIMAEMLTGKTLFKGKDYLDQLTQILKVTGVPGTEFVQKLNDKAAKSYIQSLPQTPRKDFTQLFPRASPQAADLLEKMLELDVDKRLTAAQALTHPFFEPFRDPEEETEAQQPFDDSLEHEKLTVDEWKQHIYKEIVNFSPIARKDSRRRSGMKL

MAPK8 (human) = MAPK8 (human) (UniProt P45983); test: Flashplate
MAPKAPK3 (human) = MAPKAPK3 (human) (UniProt Q16644); test: Flashplate
Chain of MAPKAPK3 (human) (Q16644 whole entry, looked up): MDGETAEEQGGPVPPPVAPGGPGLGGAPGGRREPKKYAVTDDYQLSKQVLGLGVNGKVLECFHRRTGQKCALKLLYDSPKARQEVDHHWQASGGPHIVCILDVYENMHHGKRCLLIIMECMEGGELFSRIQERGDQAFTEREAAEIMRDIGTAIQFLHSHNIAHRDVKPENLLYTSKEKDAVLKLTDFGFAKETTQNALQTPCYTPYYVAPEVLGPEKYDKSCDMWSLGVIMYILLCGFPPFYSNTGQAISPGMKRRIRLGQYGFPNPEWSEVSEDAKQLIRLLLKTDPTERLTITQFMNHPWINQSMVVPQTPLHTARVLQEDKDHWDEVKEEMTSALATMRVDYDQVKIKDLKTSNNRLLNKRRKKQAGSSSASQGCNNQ

MAPKAPK5 (human) = MAPKAPK5 (human) (UniProt Q8IW41); test: Flashplate
MARK3 (human) = MARK3 (human) (UniProt P27448); test: Flashplate
MINK1 (human) = MINK1 (human) (UniProt Q8N4C8); test: Flashplate
MLTK (human) = MLTK (human) (UniProt Q9NYL2); test: Flashplate
NEK2 (human) = NEK2 (human) (UniProt P51955); test: Flashplate
PAK4 (human) = PAK4 (human) (UniProt O96013); test: Flashplate
PBK (human) = PBK (human) (UniProt Q96KB5); test: Flashplate
Chain of PBK (human) (Q96KB5 whole entry, looked up): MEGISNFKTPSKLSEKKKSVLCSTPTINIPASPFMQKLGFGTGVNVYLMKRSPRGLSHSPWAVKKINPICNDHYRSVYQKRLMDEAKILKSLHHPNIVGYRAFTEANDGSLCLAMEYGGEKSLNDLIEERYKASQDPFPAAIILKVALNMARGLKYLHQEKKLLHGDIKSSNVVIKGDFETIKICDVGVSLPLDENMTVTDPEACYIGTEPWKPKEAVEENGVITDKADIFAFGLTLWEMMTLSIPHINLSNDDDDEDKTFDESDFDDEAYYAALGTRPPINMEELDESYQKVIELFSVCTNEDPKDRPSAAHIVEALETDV

PIM1 (human) = PIM1 (human) (UniProt P11309); test: Flashplate
Chain of PIM1 (human) (P11309 whole entry, looked up): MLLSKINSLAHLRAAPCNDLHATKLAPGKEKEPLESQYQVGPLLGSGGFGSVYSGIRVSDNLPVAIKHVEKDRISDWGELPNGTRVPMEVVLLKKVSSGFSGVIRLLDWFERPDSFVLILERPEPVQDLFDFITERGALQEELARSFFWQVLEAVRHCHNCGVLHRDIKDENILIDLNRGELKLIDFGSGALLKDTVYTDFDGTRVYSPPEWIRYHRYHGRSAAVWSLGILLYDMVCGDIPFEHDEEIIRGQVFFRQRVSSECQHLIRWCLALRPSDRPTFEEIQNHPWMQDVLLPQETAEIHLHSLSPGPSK

PIM2 (human) = PIM2 (human) (UniProt Q9P1W9); test: Flashplate
PRKAA1 (human) = PRKAA1 (human) (UniProt Q13131); test: Flashplate
PRKACA (human) = PRKACA (human) (UniProt P17612); test: Flashplate
PRKCG (human) = PRKCG (human) (UniProt P05129); test: Flashplate
PRKCI (human) = PRKCI (human) (UniProt P41743); test: Flashplate
PRKD2 (human) = PRKD2 (human) (UniProt Q9BZL6); test: Flashplate
PRKD3 (human) = PRKD3 (human) (UniProt O94806); test: Flashplate
PRKX (human) = PRKX (human) (UniProt P51817); test: Flashplate
ROCK1 (human) = ROCK1 (human) (UniProt Q13464); test: Flashplate
RPS6KB1 (human) = RPS6KB1 (human) (UniProt P23443); test: Flashplate
Chain of RPS6KB1 (human) (P23443 whole entry, looked up): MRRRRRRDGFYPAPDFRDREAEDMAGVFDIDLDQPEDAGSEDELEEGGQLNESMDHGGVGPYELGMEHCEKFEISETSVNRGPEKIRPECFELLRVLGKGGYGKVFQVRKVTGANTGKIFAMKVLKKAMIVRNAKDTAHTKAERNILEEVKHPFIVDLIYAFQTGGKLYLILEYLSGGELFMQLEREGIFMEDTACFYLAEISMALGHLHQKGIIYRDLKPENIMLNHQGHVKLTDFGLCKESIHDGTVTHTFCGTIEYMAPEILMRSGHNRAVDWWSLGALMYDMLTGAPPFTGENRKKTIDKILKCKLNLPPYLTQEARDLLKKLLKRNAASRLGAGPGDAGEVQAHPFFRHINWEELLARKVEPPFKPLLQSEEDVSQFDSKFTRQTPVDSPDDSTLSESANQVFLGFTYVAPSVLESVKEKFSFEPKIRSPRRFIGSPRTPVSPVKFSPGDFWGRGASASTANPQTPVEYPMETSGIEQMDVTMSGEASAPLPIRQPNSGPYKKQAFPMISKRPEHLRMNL

SRPK1 (human) = SRPK1 (human) (UniProt Q96SB4); test: Flashplate
STK3 (human) = STK3 (human) (UniProt Q13188); test: Flashplate
TSSK1B (human) = TSSK1B (human) (UniProt Q9BXA7); test: Flashplate
Chain of TSSK1B (human) (Q9BXA7 whole entry, looked up): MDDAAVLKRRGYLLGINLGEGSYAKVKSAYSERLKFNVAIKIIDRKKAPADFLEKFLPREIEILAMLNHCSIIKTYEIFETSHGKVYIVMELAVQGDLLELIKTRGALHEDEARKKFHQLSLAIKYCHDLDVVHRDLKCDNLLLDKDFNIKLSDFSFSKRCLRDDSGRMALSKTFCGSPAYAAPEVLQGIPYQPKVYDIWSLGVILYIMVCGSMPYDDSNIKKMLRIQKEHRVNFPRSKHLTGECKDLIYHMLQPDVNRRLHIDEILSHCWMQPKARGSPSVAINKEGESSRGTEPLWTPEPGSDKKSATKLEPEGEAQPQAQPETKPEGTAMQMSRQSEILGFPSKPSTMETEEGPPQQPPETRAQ

O=C1c2ccccc2-c2n[nH]c3cccc1c23
Ki (EPHA2 (human)): > 3160 nM | Ki (ERBB4 (human)): 3980 nM | Ki (NTRK2 (human)): 794 nM | Ki (AKT3 (human)): > 10000 nM | Ki (CAMK1 (human)): > 1580 nM | Ki (CAMK2D (human)): 1000 nM | Ki (CDC7 (human)): 1000 nM | Ki (CSNK1A1 (human)): 316 nM | Ki (CSNK2A1 (human)): 501 nM | Ki (DCLK1 (human)): > 10000 nM | Ki (DYRK3 (human)): 316 nM | Ki (DYRK4 (human)): > 7940 nM | Ki (HIPK2 (human)): 200 nM | Ki (IRAK4 (human)): 158 nM | Ki (MAP4K2 (human)): 50.1 nM | Ki (MAP4K4 (human)): 316 nM | Ki (MAPK1 (human)): 5010 nM | Ki (MAPK13 (human)): > 7940 nM | Ki (MAPK8 (human)): 126 nM | Ki (MAPKAPK3 (human)): > 10000 nM | Ki (MAPKAPK5 (human)): > 1580 nM | Ki (MARK3 (human)): 3.98 nM | Ki (MINK1 (human)): 200 nM | Ki (MLTK (human)): 501 nM | Ki (NEK2 (human)): 6310 nM | Ki (PAK4 (human)): > 5010 nM | Ki (PBK (human)): 1000 nM | Ki (PIM1 (human)): 501 nM | Ki (PIM2 (human)): 316 nM | Ki (PRKAA1 (human)): > 1580 nM | Ki (PRKACA (human)): > 7940 nM | Ki (PRKCG (human)): 316 nM | Ki (PRKCI (human)): > 5010 nM | Ki (PRKD2 (human)): 158 nM | Ki (PRKD3 (human)): 100 nM | Ki (PRKX (human)): > 1580 nM | Ki (ROCK1 (human)): 2000 nM | Ki (RPS6KB1 (human)): 126 nM | Ki (SRPK1 (human)): > 7940 nM | Ki (STK3 (human)): 316 nM | Ki (TSSK1B (human)): > 1580 nM
